Experimental data reported in patent US20110207166A1, “Human bone marrow microenvironments and uses thereof” (priority 2009, published 2011).
“Also recorded” adds a separate entry of the source.

Assays:
[1] = tested on: AML cells in MSC-coated scaffolds; assay: In vivo mesenchymal leukemic niche in MSC-coated scaffolds implanted subcutaneously in NOD/SCID mice, CD45 immunohistochemistry; details: 4 weeks; in situ injection twice per week; SDF-1/CXCL12 10 ng/ml; AMD3100 10 μM; human CD45 stain
Description: Polyurethane scaffolds (10×1.5 mm—Biomerix), coated in vitro with human BM-derived MSC (day 5-7), were implanted in a subcutaneous pocket on the dorsum of non-irradiated NOD/SCID mice (Jackson laboratory) according to an approved IACUC animal protocol. Empty scaffolds (without MSC seeding) were used as negative controls. CD34+ HSC (1×10^5—Stem Cell Technology, Vancouver) or primary AML cells (1×10^7—cryopreserved and thawed) were injected either in situ or retro-orbital in the mice and analyzed for engraftment. The mice were treated twice per week with in situ injections of SDF-1/CXCL12 (10 ng/ml), AMD3100 (10 μM) or PBS (control). At week 1, week 4 and week 8, mice were sacrificed and the scaffolds, femurs and spleens were processed and evaluated for cell survival in the mesenchymal niche by immunohistochemistry.
Harvested scaffolds were fixed in formalin solution 10%, neutral buffered (HistoPak-StatLab Medical Products-TX) and paraffin embedded and cut on slides. […]
Each experiment was performed in duplicate, with two mice per experiment in each treatment arm and one mouse as a negative control. Multiple slides per scaffold were analyzed for imaging by immunohistochemistry and light microscopy. […]

MSC niche = assay: In vitro mesenchymal stem cell niche (cobblestone area) formation, phase contrast imaging; assay type: cell-based, human; details: SDF-1/CXCL12 10 ng/ml, AMD3100 10 μM
Description: Fresh human BM samples were obtained from orthopedic surgery after informed consent (Tissue Donor Program of the Feinstein Institute). The buffy coat containing the mononucleated cells (MNC) was isolated by Ficoll-density gradient separation (Stem Cell Technology, Vancouver). MNC were plated at low density in 6-well plates in Alpha-Mem (Lonza), 20% heat-inactivated fetal bovine serum (Hyclone), 5 mM L-Glutamine and 100 Units/ml Peni/Strep (Stem Cell Technologies) for overnight adherence. After 24-48 hours, the non-adherent cell fraction was discharged by rigorous pipetting. At day 5, single-cell derived mesenchymal colonies were processed for immunohistochemistry (Vectastain ABC kit, Vector Laboratories, Burlingame, Calif.). MSC were stained for CD90/Thy-1 (Mouse anti-human mAb, Clone 5E10, BD Pharmingen), CD105 (Mouse anti-human mAb, clone 266, BD Pharmingen), CD146 (Mouse monoclonal [P1H12] Abcam). Cells were also labeled for flow cytometry with CD34-APC (Miltenyi Biotec), CD105-FITC (R&D), CD45-FITC, CD90-PECy5, CD146-PE and CXCR4-PE (BD Pharmingen) including matching isotype controls.
Polyurethane scaffold test discs (10×1.5 mm—Biomerix) were placed inside a cloning cylinder (Millipore Corporation, MA), one cylinder in each well of a 24-well plate (Falcon, BD). […]

CXCR4 = CXCR4 (Homo sapiens, UniProt P61073); details: AML; reference [42]; cited from earlier work
Chain of CXCR4 (P61073 whole entry): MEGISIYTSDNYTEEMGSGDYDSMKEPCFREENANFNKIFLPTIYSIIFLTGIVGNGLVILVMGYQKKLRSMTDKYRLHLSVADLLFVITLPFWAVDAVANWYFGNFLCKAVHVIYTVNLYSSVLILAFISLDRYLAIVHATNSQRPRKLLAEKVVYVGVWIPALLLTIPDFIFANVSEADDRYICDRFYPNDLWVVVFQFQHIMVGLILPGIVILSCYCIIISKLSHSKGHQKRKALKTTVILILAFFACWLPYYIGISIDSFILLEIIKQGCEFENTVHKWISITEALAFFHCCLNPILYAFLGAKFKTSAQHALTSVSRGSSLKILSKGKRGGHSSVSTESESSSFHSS

Compound	MSC stromal layer and adherence of AML cells in MSC-coated scaffold [1]	cobblestone area formation / migration of hematopoietic progenitors underneath the MSC (MSC niche)	effect on chemoprotective effects of the stromal cell-leukemia interaction (CXCR4)
c1cc(CN2CCCNCCNCCCNCC2)ccc1CN1CCCNCCNCCCNCC1 [AMD3100]	the stromal lining is thin and disrupted at several points, leaving AML cells free floating in proximity; also recorded: interact with AML homing by stem cell niche disruption at the level of the stromal layer; also recorded: thin stromal lining that was disrupted at several points, leaving AML cells free floating in proximity; also recorded: the MSC stroma became ruffled and non-adherent and AML remained only loosely attached	MSC remain empty and hematopoietic progenitors do not migrate underneath the MSC; also recorded: the cytoplasm remained empty	
c1ccc(CNCc2ccc(CN3CCCNCCNCCCNCC3)cc2)nc1 [AMD3465]			prevent the chemoprotective effects of the stromal cell-leukemia interaction
SDF-1/CXCL12: chemokine stromal-cell derived factor, ligand of CXCR4 (R&D Systems)	thick proliferation of the MSC stromal layer with multiple adherent AML cells present; also recorded: upregulates adhesion of AML cells to the stroma; also recorded: induces hyperproliferation of the mesenchymal stroma compartment	cobblestone area formation	
